Measured values taken from patent publication US9617530B2, “Acetyl-CoA carboxylase herbicide resistant sorghum” (Kansas State University Research Foundation, Inc., priority 2007, dated 2017).

How the values were obtained:
[1] = test system: Tx2783, an herbicide susceptible elite sorghum genotype; assay: Greenhouse herbicide selection, spray on susceptible elite check; format: in vivo, Sorghum bicolor (L.) Moench
From the text: Seeds of 83 wild sorghum populations from Bolivia were planted in a greenhouse for comparison with Tx2783, an herbicide susceptible elite sorghum genotype. Wild sorghum genotypes were planted in flats containing MetroMix 360 potting soil (Sun Gro) and greenhouse grown. Tx2783 was planted with the wild accessions in each flat for comparison. In one selection using clethodim, plants were sprayed with 0.09 lb ai clethodim acre^−1 at 18 days after planting. […] In one selection using fluoazifop-P, flats with Tx2783 and wild accessions were sprayed with a rate of 0.12 lb ai fluazifop-P acre^−1 at 18 days after planting and with 0.36 lb ai fluazifop-P acre^−1 at 32 days after planting. […] In a third experiment, plants were sprayed with a rate of 0.05 lb ai quizalofop acre^−1 at 18 days after planting and with 0.11 lb ai quizalofop acre^−1 at 32 days after planting.

[2] = test system: Pioneer 84G62 (herbicide susceptible control); assay: Mode of inheritance greenhouse spray test, susceptible control; format: in vivo, sorghum; conditions: 0.045 lb ai fluazifop-P acre^-1 at 14 days after planting, n=3
Experimental: (§1) The mode of inheritance of herbicide tolerance was determined by planting seeds of Bol-71, F1 generation of cross ATx623×Bol-71, and Pioneer 84G62 (herbicide susceptible control) in flats containing MetroMix 360 potting soil in a greenhouse using a randomized complete block design (n=3). The plants were sprayed with 0.045 lb ai fluazifop-P acre^−1 at 14 days after planting. Pioneer 84G62 died between 12-16 days after spraying.

[3] = test system: F1 generation of cross ATx623×Bol-71; assay: Mode of inheritance greenhouse spray test, F1 hybrid; format: in vivo, sorghum; conditions: 0.045 lb ai fluazifop-P acre^-1 at 14 days after planting, n=3
Experimental: as §1

Bol-71 = assay: Mode of inheritance greenhouse spray test, wild parent; format: in vivo, sorghum; conditions: 0.045 lb ai fluazifop-P acre^-1 at 14 days after planting, n=3
Experimental: as §1

Structure (SMILES)	plant outcome after spraying ([1]; 0.12 lb ai fluazifop-P acre^-1 at 18 days and 0.36 lb ai acre^-1 at 32 days after planting)	time of plant death after spraying [2]	herbicide damage [3]	herbicide damage (Bol-71)	plant outcome after spraying ([1]; 0.05 lb ai quizalofop acre^-1 at 18 days and 0.11 lb ai acre^-1 at 32 days after planting)
C[C@@H](Oc1ccc(Oc2ccc(C(F)(F)F)cn2)cc1)C(=O)O [fluazifop-P]	died	12-16 days after spraying	no herbicide damage	no herbicide damage	
CC(Oc1ccc(Oc2cnc3cc(Cl)ccc3n2)cc1)C(=O)O (centres unmarked) [quizalofop]					died
